The target of this test is UPR counterscreen luciferase reporter, luminescence. As to the kind of experiment: activators in UPR counterscreen luciferase reporter, dose response, counter-screen for adaptive UPR activator project, cell-based, luminescence (AID 489027).

The source made the active and inactive calls. How the calls were made is not given here.

`CC1=Nc2ccccc2/C1=C\c1sc(Nc2ccc(C)cc2)nc1O`: the EC50 is 17.3 µM. The figure for `COc1cc(SC#N)ccc1N=Cc1c(C)[nH]n(-c2ccc(C)c(C)c2)c1=O` is 17.4 µM; for `COc1ccccc1C(=O)NC(=S)NNC(=O)c1sc2ccccc2c1Cl` it is “inactive”; for `NS(=O)(=O)c1ccc(N/N=C/c2cn(-c3ccccc3)nc2-c2ccccc2)c([N+](=O)[O-])c1` it is 7.34 µM.

As to `CCCCCCCCCCOC(=O)Cn1c(COc2ccccc2C)[n+](C)c2ccccc21`, the EC50 was > 80 µM (inactive). The value for `Cc1ccc2nc(/C(C#N)=C/c3ccc(O)c(O)c3)[nH]c2c1` was 13.7 µM; that for `N#Cc1cc2c(nc1SCC(=O)Nc1sc3c(c1C#N)CCC3)CCCC2` was “inactive”; that for `O=C(NCc1ccccc1Br)c1cccc2c1C(=O)c1ccc(-c3ccc(OC(F)(F)F)cc3)cc1S2(=O)=O` was 9.03 µM. For the molecule `CCOC(=O)c1nnn2c1nc(Nc1cccc(C(F)(F)F)c1)c1ccccc12`, the EC50 is 10 µM. The figure for `Clc1ccc(C2=Nn3c(nnc3-c3cc(-c4ccccc4)n[nH]3)SC2)cc1` is 12.1 µM; for `C/C(Cl)=C\Cn1c(O)c(N=NC(N)=S)c2cc(Br)ccc21` it is 17.3 µM. The figure for `Cc1ccccc1NC(=O)c1ccc(N/N=C/c2ccccc2O)c([N+](=O)[O-])c1` is 7.98 µM. Turning to `COc1ccccc1CCNC(=O)C1CCN(c2nnc(C)c3c(C)n(-c4ccc(C)cc4)nc23)CC1`, the EC50 was 18.1 µM. As for `N#Cc1cnn2c1nc(N1CCCCC1)c1ccccc12`, the EC50 was > 80 µM (inactive). The figure for `Cc1ccc(CNC(=O)c2ccc3c(=O)n4c(-c5ccc(C)cc5)csc4nc3c2)cc1` is > 80 µM (inactive); for `CC1CCCCC1N1CN=C(Nc2nc3ccccc3s2)NC1` (stereo unspecified) it is > 80 µM (inactive); for `CSc1ccccc1NC(=O)c1cc(-c2cccnc2)nc2ccc(Br)cc12` it is > 80 µM (inactive). The figure for `OCCNc1nc(Nc2ccc(Br)cc2)nc2ccccc12` is 5.82 µM; for `O=C(Cn1c2ccc(F)cc2c2nc3n(c(=O)c21)CCS3)Nc1ccc(Cl)cc1F` it is > 80 µM (inactive). As for `CCOC(=O)c1c(NC(=O)CNC2CCCc3ccccc32)sc(C(N)=O)c1C` (stereo unspecified), the EC50 is > 80 µM (inactive). The figure for `CC1C/C(=N/Nc2nc3ccccc3[nH]2)CC(C)(C)C1` (stereo unspecified) is 14.6 µM; for `O=C1c2ccccc2C(=O)N1/N=C/c1ccc(O)c(O)c1` it is “inactive”; for `COc1cc(SC#N)ccc1N=Cc1c(C)[nH]n(-c2ccc(Cl)cc2)c1=O` it is 7.41 µM.

On to `O=C(Nc1nc(-c2ccc3ccccc3c2)cs1)c1ccc(N2C(=O)CCC2=O)cc1`, for which the EC50 is > 80 µM (inactive). The value for `CC(C)N(C(=O)[C@H]1C[C@H](CC(=O)NCc2cccc(C(F)(F)F)c2)C(=O)N2CCc3c([nH]c4ccc(Cl)cc34)[C@]12C)C(C)C` was “inactive”; that for `COC(=O)c1c(NC(=O)c2nc3ccccc3s2)sc2c1CC(C)(C)NC2(C)C` was > 80 µM (inactive); that for `Cc1ccc2nc(Nc3nc(C)cc(-c4ccccc4)n3)[nH]c(=O)c2c1` was > 80 µM (inactive). The figure for `Cc1cc(C)c2c(c1)/C(=c1/sc3n(c1=O)CN(c1ccccc1)CN=3)C(=O)N2` is 10.5 µM; for `C/C(CCC12CC3CC(CC(C3)C1)C2)=N\NC(N)=S` it is “inactive”. The entry for `O=C(Cc1ccccc1)c1c[nH]c(C(=O)C(Cl)(Cl)Cl)c1` is “inactive”. In the case of `COc1ccc(C2NCCc3c2[nH]c2ccccc32)cc1COc1ccc(F)cc1` (stereo unspecified), the EC50 is 18.3 µM.

As to `Brc1cc2c(cc1/C=N/Nc1nc3ccccc3s1)OCO2`, the EC50 was > 80 µM (inactive). Turning to `CCOC(=O)c1c2ccc(OCC(=O)N/N=C/c3ccc(C)cc3)cc2n2ccccc12`, the EC50 is 17.3 µM. The value for `Cn1c2ccccc2c2cc(/C=N/NC(=O)c3cc(O)ccc3O)ccc21` was 4.02 µM.

Turning to `CCOC(=O)N1CCN(S(=O)(=O)c2ccc(C(=O)Nc3nc4c(s3)CC(C)CC4)cc2)CC1` (stereo unspecified), the EC50 is 9.29 µM. The value for `Cc1cc(C)c2c(n1)sc1c(-c3ccccc3)c(C#N)c(N)nc12` was > 80 µM (inactive).

As to `CCCCOc1ccccc1NC(=O)Cn1c(-c2nonc2N)nc2ccccc21`, the EC50 entry is “inactive”.

`COc1ccc(/C=C/c2nc3cc(-c4ccccc4)ccc3o2)cc1O`: the EC50 is 14.6 µM. The value for `Cc1ccc2c(c1)C(=O)C(=O)N2Cc1ccc(Cl)cc1` was “inactive”; that for `CC(=O)Oc1ccc(-c2ccc(C(=O)OCC(=O)N(C)CC(=O)Nc3ccccc3Cl)cc2)cc1` was 3.02 µM.

In the case of `COc1ccc(C(CCNC(C)c2ccccc2)c2ccc(F)cc2)cc1` (stereo unspecified), the EC50 entry was “inactive”. The entry for `Cc1nn(Cc2ccccc2)c(C)c1NC(=O)CSc1nc(C2CC2)nc2c1cnn2-c1ccccc1` is “inactive”; for `COc1ccc(CCn2c(=S)[nH]c3cc(C(=O)NCc4ccco4)ccc3c2=O)cc1OC` it is > 80 µM (inactive); for `Cc1ccc(N2CCN(c3ccc(NCc4nc5ccccc5n4C)cc3)CC2)cc1` it is “inactive”.

Consider `CC(C)CN=C(NS(=O)(=O)c1ccccc1)C(Cl)(Cl)Cl`, for which the EC50 was 16.2 µM. Consider `COc1cccc2sc(N3CCN(c4nc5ccccc5s4)CC3)nc12`, for which the EC50 is 16.8 µM.

As for `COc1ccc(OC)c(-c2nnc3n2N=C(c2ccc(OC)c(OCC4CC4)c2)CS3)c1`, the EC50 is > 80 µM (inactive). The figure for `Cc1cccc(Nc2nc3c(S(=O)(=O)c4ccccc4)nnn3c3ccccc23)c1C` is 12.3 µM.

Turning to `CCc1nc(C)cn1S(=O)(=O)c1cc([N+](=O)[O-])ccc1Cl`, the EC50 was > 80 µM (inactive). With `Cc1ccc(C(C)C)c(OCc2ccc(C(=O)N/N=C/c3ccc(O)c(O)c3)cc2)c1`, the EC50 is 4.95 µM. The figure for `CCOc1cc(/C=C2/C(=N)N3C=CSC3=NC2=O)ccc1OCCCOc1ccccc1C` is 17.7 µM; for `O=C(Oc1ccccc1/C=C\C(=O)c1cc2ccccc2o1)c1cccc(F)c1` it is 8.33 µM. The value for `CC(C)c1ccc(/C=C/C(=O)Nc2nc3ccc([N+](=O)[O-])cc3s2)cc1` was “inactive”; that for `Cc1nn(-c2ccccc2)c(C)c1/C=N/NC(=O)CSc1nc2ccccc2c(=O)n1-c1ccc(Br)cc1` was 7.19 µM.

Turning to `Cc1ccc2nc(NC(=O)c3ccc(-c4nc5ccccc5s4)s3)sc2c1`, the EC50 is 11 µM. The figure for `CC1=C(/C=C/C(C)=C/C=C/C(C)=C/C(=O)Nc2ccc(O)cc2)C(C)(C)CCC1` is 8.45 µM. `COc1ccc2[nH]c3c(c2c1)CCN1C(=O)C(CC(=O)NC/C=C(\C)CCC=C(C)C)C[C@H](C(=O)N(C(C)C)C(C)C)[C@@]31C` (stereo partly specified): the EC50 entry is “inactive”. The figure for `COc1ccc(NC(=O)c2sc3nc(N4CCOCC4)c4c(c3c2N)CC(C)(C)OC4)c(OC)c1` is 19.3 µM; for `Cc1ccc(NC(=O)c2c(C)nc3sc(C(=O)NC4CCCC4)c(N)c3c2-c2ccco2)c(C)c1` it is “inactive”; for `COc1cc(C(=O)Nc2cc(-c3nc4cc(C)ccc4o3)ccc2C)cc(OC)c1OC` it is “inactive”.

On to `COc1ccc2c(c1)[nH]c1c(=O)n(/N=C/C3C(C)C=C(C)CC3C)c(=O)[nH]c12` (stereo unspecified), for which the EC50 entry was “inactive”.

`CCOc1cc(/C=C(\C#N)c2[nH]nc(N)c2C#N)ccc1O`: the EC50 is > 80 µM (inactive). The value for `CCOC(=O)c1nn(-c2ccc(OCC)cc2)c2nc(-c3ccco3)c(C#N)c(=O)n12` was “inactive”; that for `CCN(CC)c1ccc(-c2nn3c(-c4ccccc4OC)nnc3s2)cc1` was “inactive”. The value for `COc1ccc2[nH]c3c(c2c1)CCN1C(=O)C(CC(=O)NC/C=C(\C)CCC=C(C)C)C[C@H](C(=O)N2CCOCC2)[C@@]31CCC1CCCC1` (stereo partly specified) was 18.5 µM; that for `CCOC(=O)c1cc(NC(=O)c2ccc(Cl)cc2)c(=O)n2c1oc1ccc(Cl)cc12` was > 80 µM (inactive); that for `Cc1ccc(/C=C/C(=O)c2cc(Br)ccc2OC(=O)c2ccco2)cc1` was “inactive”. The figure for `CCCCNc1c(-c2ccc(-c3ccc(C(C)=O)cc3)c(OC)c2)nc2cc(C)ccn12` is > 80 µM (inactive). In the case of `Nc1nc(Nc2ccccc2)nc(NC2CCCCC2)c1[N+](=O)[O-]`, the EC50 entry is “inactive”. The value for `O=c1[nH]c(-c2ccc(-c3cccc(Cl)c3)o2)nc2ccccc12` was 11.9 µM; that for `Cc1ccc(-n2nc3cc(C)c(NC(=S)NC(=O)/C=C/c4ccco4)cc3n2)cc1` was 11.6 µM. For the molecule `O=c1cc(C(Cl)(Cl)Cl)oc2c1ccc1ccccc12`, the EC50 was > 80 µM (inactive). The value for `O=C(Nc1ccc(SC(F)F)cc1)c1cc(-c2ccncc2)nc2ccccc12` was > 80 µM (inactive); that for `CCOC(=O)C1=C(C)N=C2SC(C(=O)OC)=CC(=O)N2C1c1ccc(F)cc1` (stereo unspecified) was > 80 µM (inactive). The figure for `N#C/C(=C/c1ccc(N2CCCC2)c([N+](=O)[O-])c1)c1nc2ccccc2[nH]1` is > 80 µM (inactive); for `O=C(NN1C(=O)/C(=C/c2ccc(O)c(O)c2)SC1=S)c1ccccc1` it is 10.2 µM; for `Cc1nc(SCC(=O)Nc2ccc(F)cc2)c(C#N)c(C)c1CC(=O)c1ccc(Br)cc1` it is > 80 µM (inactive).

As to `COc1ccc(-c2csc(NC(=S)NC(=O)/C=C/c3ccccc3)n2)cc1Br`, the EC50 entry is “inactive”. The figure for `CCOc1cc(/C=N/N=C(\N)c2nonc2N)cc(Br)c1OCc1cccc2ccccc12` is > 80 µM (inactive). The value for `COc1cccc(-c2c(-c3cc(OC)cc(OC)c3)n(C)c3ccc(-c4cnc(N5CCOCC5)nc4)cc23)c1` was “inactive”; that for `CC(=O)c1cccc(N=Cc2c(O)c3ccccc3oc2=O)c1` was 7.69 µM. The value for `Cc1sc(NC(=O)c2cc(-c3ccc(Cl)cc3)nc3ccccc23)c(C(N)=O)c1C` was > 80 µM (inactive); that for `C/C(CC(C)(C)C1CCCCC1)=N\NC(N)=S` was 12.1 µM; that for `OCCCn1c(C2CCCN2c2nc(-c3ccc(F)cc3)cs2)nc2cc(Cl)c(N3CCCCC3)cc21` (stereo unspecified) was > 80 µM (inactive). Take `Brc1cc(Br)c2ncnc(N3CCCCC3)c2c1`: the EC50 entry is “inactive”. The value for `CC(C)=CCCC1(C)C=Cc2c(ccc3c2[nH]c2cc(O)c(C)cc23)O1` (stereo unspecified) was 19.6 µM.

(Values after PubChem BioAssay AID489027 (Sanford-Burnham Center for Chemical Genomics, 2010).)
